Results published in PubChem BioAssay AID248 (DTP/NCI, 2004).
Several values for one entry are separate records, joined by “and”; a condition that tells them apart may be missing. Equal entries are not always repeated. Toxic doses and inconclusive results are not listed. Cut-off read from the data, not from the text of the source: active = T/C of 150% or more; inactive = T/C below 125%.

Test system: L1210 leukemia ip in BDF1 mice, survival T/C
Assay: NCI In Vivo Anticancer Drug Screen. Data for tumor model L1210 Leukemia (intraperitoneal) in B6D2F1 (BDF1) mice
Details: endpoint: mean survival time, higher = longer survival
How it was run: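 Tumor was transplanted into mice, which were then dosed with test compound or vehicle alone. Survival was recorded for each group, and the treated figure was expressed relative to the control figure.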

[1] = dose: 100.0 mg/kg/injection, schedule: Q01DX001 (ip), vehicle: saline
[2] = dose: 200.0 mg/kg/injection, schedule: Q01DX001 (ip), vehicle: saline
[3] = dose: 100.0 mg/kg/injection, schedule: Q01DX009 (ip), vehicle: Klucel (hydroxypropylcellulose) (HPC)
[4] = dose: 200.0 mg/kg/injection, schedule: Q01DX009 (ip), vehicle: Klucel (hydroxypropylcellulose) (HPC)
[5] = dose: 400.0 mg/kg/injection, schedule: Q01DX009 (ip), vehicle: Klucel (hydroxypropylcellulose) (HPC)
[6] = dose: 100.0 mg/kg/injection, schedule: Q04DX003 (ip), vehicle: saline with Tween-80
[7] = dose: 200.0 mg/kg/injection, schedule: Q04DX003 (ip), vehicle: saline with Tween-80
[8] = dose: 400.0 mg/kg/injection, schedule: Q04DX003 (ip), vehicle: saline with Tween-80
[9] = dose: 100.0 mg/kg/injection, schedule: Q01DX009 (ip), vehicle: saline with Tween-80
[10] = dose: 200.0 mg/kg/injection, schedule: Q01DX009 (ip), vehicle: saline with Tween-80
[11] = dose: 400.0 mg/kg/injection, schedule: Q01DX009 (ip), vehicle: saline with Tween-80
[12] = dose: 100.0 mg/kg/injection, schedule: Q04DX002 (ip), vehicle: Klucel (hydroxypropylcellulose) (HPC)
[13] = dose: 200.0 mg/kg/injection, schedule: Q04DX002 (ip), vehicle: Klucel (hydroxypropylcellulose) (HPC)
[14] = dose: 400.0 mg/kg/injection, schedule: Q04DX002 (ip), vehicle: Klucel (hydroxypropylcellulose) (HPC)
[15] = dose: 100.0 mg/kg/injection, schedule: Q04DX002 (ip), vehicle: saline with Tween-80
[16] = dose: 200.0 mg/kg/injection, schedule: Q04DX002 (ip), vehicle: saline with Tween-80
[17] = dose: 400.0 mg/kg/injection, schedule: Q04DX002 (ip), vehicle: saline with Tween-80
[18] = dose: 100.0 mg/kg/injection, schedule: Q04DX002 (ip), vehicle: saline

Measured: T/C

Nc1ncnc2c1ncn2C(/C=N/Nc1ccccc1)OC(/C=N\Nc1ccccc1)CO (stereo not drawn)
inactive: dose: 100.0 mg/kg/injection, schedule: Q01DX001 (ip), vehicle: other 106 % of control | dose: 200.0 mg/kg/injection, schedule: Q01DX001 (ip), vehicle: other 108 % of control

CCO/N=C(/C)C(C)SC#N (stereo not drawn)
inactive: dose: 10.0 mg/kg/injection, schedule: Q01DX001 (ip), vehicle: saline 97 % of control | dose: 20.0 mg/kg/injection, schedule: Q01DX001 (ip), vehicle: saline 105 % of control

CCOC(=O)CNC(=O)Cn1ccc(=O)[nH]c1=O
inactive: dose: 50.0 mg/kg/injection, schedule: Q01DX001 (ip), vehicle: saline 96 % of control | [1] 98 % of control | [2] 98 % of control

COCCOCCOC(=O)C(CO)(CC(CO)(C(C)=O)C(=O)OCCOCCOC)C(C)=O (stereo not drawn)
inactive: dose: 222.0 mg/kg/injection, schedule: Q01DX Z (ip), vehicle: saline 92 % of control | dose: 333.0 mg/kg/injection, schedule: Q01DX Z (ip), vehicle: saline 102 % of control | dose: 500.0 mg/kg/injection, schedule: Q01DX Z (ip), vehicle: saline 107 % of control

CN(C)c1ccc(/C=N/NC(=O)c2ccc(N)cc2)cc1
inactive: [3] 89 % of control | [4] 86 % of control | [5] 89 % of control

CC(=O)OC1CCSCC1
inactive: [6] 101 % of control | [7] 93 % of control | [8] 103 % of control

Clc1nc2nc(C3CC3)[nH]c2nc1Cl
inactive: [9] 104 % of control | [6] 97 % of control | [10] 90 % of control | [7] 95 % of control | [11] 111 % of control | [8] 101 % of control

COP1(=O)CC=C(C)C1 (stereo not drawn)
inactive: [1] 98 % of control | [2] 98 % of control | dose: 400.0 mg/kg/injection, schedule: Q01DX001 (ip), vehicle: saline 106 % of control

Cc1cc(C)c(S(=O)(=O)CC(Cl)c2ccccc2)c(C)c1 (stereo not drawn)
inactive: dose: 100.0 mg/kg/injection, schedule: Q01DX001 (ip), vehicle: acetone 95 % of control | dose: 100.0 mg/kg/injection, schedule: Q04DX003 (ip), vehicle: acetone 103 % of control | dose: 200.0 mg/kg/injection, schedule: Q01DX001 (ip), vehicle: acetone 97 % of control | dose: 200.0 mg/kg/injection, schedule: Q04DX003 (ip), vehicle: acetone 97 % of control | dose: 400.0 mg/kg/injection, schedule: Q01DX001 (ip), vehicle: acetone 93 % of control | dose: 400.0 mg/kg/injection, schedule: Q04DX003 (ip), vehicle: acetone 97 % of control

C(=N\N=C\c1ccccc1)/c1ccccc1
inactive: [9] 97 % of control | [12] 98 % of control | [10] 100 % of control | [13] 91 % of control | [11] 100 % of control | [14] 102 % of control

N#CN1CC(C(=O)N2CCCCC2)C=C2c3cccc4[nH]cc(c34)CC21 (stereo not drawn)
inactive: dose: 4.0 mg/kg/injection, schedule: Q04DX003 (ip), vehicle: saline 96 % of control | dose: 6.25 mg/kg/injection, schedule: Q04DX003 (ip), vehicle: saline 119 % of control | dose: 8.0 mg/kg/injection, schedule: Q04DX003 (ip), vehicle: saline 95 % of control | dose: 12.5 mg/kg/injection, schedule: Q04DX003 (ip), vehicle: saline 118 % of control | dose: 16.0 mg/kg/injection, schedule: Q04DX003 (ip), vehicle: saline 86 % of control | dose: 25.0 mg/kg/injection, schedule: Q04DX003 (ip), vehicle: saline 115 % of control | dose: 50.0 mg/kg/injection, schedule: Q04DX003 (ip), vehicle: saline 90 % of control

OC(c1nc2ccc(Cl)cc2[nH]1)C(O)C(O)C(O)c1nc2ccc(Cl)cc2[nH]1 (stereo not drawn)
inactive: dose: 100.0 mg/kg/injection, schedule: Q01DX001 (ip), vehicle: carboxymethylcellulose (CMC) 90 % of control | dose: 200.0 mg/kg/injection, schedule: Q01DX001 (ip), vehicle: carboxymethylcellulose (CMC) 101 % of control | dose: 400.0 mg/kg/injection, schedule: Q01DX001 (ip), vehicle: carboxymethylcellulose (CMC) 103 % of control

CN(C)N=Nc1ccc(S(C)(=O)=O)cc1
inactive: dose: 25.0 mg/kg/injection, schedule: Q04DX002 (ip), vehicle: saline with Tween-80 105 % of control | dose: 50.0 mg/kg/injection, schedule: Q04DX002 (ip), vehicle: saline with Tween-80 102 % of control | [15] 102 % of control and 106 % of control | [16] 116 % of control | [17] 97 % of control

O=[N+]([O-])c1ccc(O)c(/C=N/N2CCCCC2)c1
inactive: [15] 94 % of control | [16] 97 % of control | [17] 108 % of control

O=c1[nH]nnc2nc[nH]c12
inactive: dose: 25.0 mg/kg/injection, schedule: Q01DX001 (ip), vehicle: steriod suspending solution 109 % of control | dose: 46.1 mg/kg/injection, schedule: Q01DX001 (ip), vehicle: steriod suspending solution 100 % of control | dose: 50.0 mg/kg/injection, schedule: Q01DX001 (ip), vehicle: steriod suspending solution 113 % of control | dose: 65.9 mg/kg/injection, schedule: Q01DX001 (ip), vehicle: steriod suspending solution 100 % of control | dose: 94.2 mg/kg/injection, schedule: Q01DX001 (ip), vehicle: steriod suspending solution 102 % of control | dose: 100.0 mg/kg/injection, schedule: Q01DX001 (ip), vehicle: steriod suspending solution 109 % of control | dose: 134.5 mg/kg/injection, schedule: Q01DX001 (ip), vehicle: steriod suspending solution 97 % of control | dose: 192.1 mg/kg/injection, schedule: Q01DX001 (ip), vehicle: steriod suspending solution 101 % of control | dose: 200.0 mg/kg/injection, schedule: Q01DX001 (ip), vehicle: steriod suspending solution 100 % of control | dose: 274.4 mg/kg/injection, schedule: Q01DX001 (ip), vehicle: steriod suspending solution 103 % of control | dose: 392.0 mg/kg/injection, schedule: Q01DX001 (ip), vehicle: steriod suspending solution 108 % of control | dose: 400.0 mg/kg/injection, schedule: Q01DX001 (ip), vehicle: steriod suspending solution 105 % of control | dose: 560.0 mg/kg/injection, schedule: Q01DX001 (ip), vehicle: steriod suspending solution 95 % of control | dose: 800.0 mg/kg/injection, schedule: Q01DX001 (ip), vehicle: steriod suspending solution 96 % of control

Nc1ccccc1SC(CC(=O)c1ccccc1)c1ccccc1 (stereo not drawn)
inactive: [15] 93 % of control and 96 % of control | [6] 91 % of control | [16] 100 % of control and 103 % of control | [7] 93 % of control and 109 % of control | [17] 98 % of control and 104 % of control | [8] 95 % of control and 91 % of control

C=CCN(N=O)C(N)=O
inactive: dose: 12.5 mg/kg/injection, schedule: Q01DX Z (ip), vehicle: methylcellulose (MC) 106 % of control | dose: 25.0 mg/kg/injection, schedule: Q01DX Z (ip), vehicle: methylcellulose (MC) 108 % of control | dose: 50.0 mg/kg/injection, schedule: Q01DX Z (ip), vehicle: methylcellulose (MC) 117 % of control

O=C(Nc1ccc(C(=O)O)cc1)Nc1cccc(Cl)c1
inactive: dose: 25.0 mg/kg/injection, schedule: Q04DX002 (ip), vehicle: saline 92 % of control | dose: 50.0 mg/kg/injection, schedule: Q04DX002 (ip), vehicle: saline 95 % of control | [18] 100 % of control and 89 % of control

CC1C(O)C(O)C(C(=O)O)ON1C(=O)c1ccccc1 (stereo not drawn)
inactive: [18] 100 % of control | dose: 200.0 mg/kg/injection, schedule: Q04DX002 (ip), vehicle: saline 100 % of control | dose: 400.0 mg/kg/injection, schedule: Q04DX002 (ip), vehicle: saline 110 % of control

COc1cc(C(=O)O)c(O)c(OC)c1OC
inactive: [3] 96 % of control | dose: 100.0 mg/kg/injection, schedule: Q04DX003 (ip), vehicle: Klucel (hydroxypropylcellulose) (HPC) 98 % of control | [4] 106 % of control | dose: 200.0 mg/kg/injection, schedule: Q04DX003 (ip), vehicle: Klucel (hydroxypropylcellulose) (HPC) 101 % of control | [5] 101 % of control | dose: 400.0 mg/kg/injection, schedule: Q04DX003 (ip), vehicle: Klucel (hydroxypropylcellulose) (HPC) 104 % of control

O=C(/C=C/c1ccccc1)c1ccc([N+](=O)[O-])cc1
inactive: [12] 94 % of control | [13] 94 % of control | [14] 108 % of control
